How the values were obtained:
HeLa cells = details: reported in the background; cited from earlier work
[1] = test system: DNA fragmentation (TUNEL-positive cells); experiment: TUNEL assay of liver sections (apoptosis); format: in vivo, albino Wistar rats
Procedure: The experimental hepatocarcinogenesis model was developed according to a protocol by Espandiaria et al. that was adapted for our purposes. To initiate and promote hepatocarcinogenesis, diethylnitrosamine (DEN) and 2-acetylaminofluorene (2-AAF) were used, respectively. For hepatocarcinogenesis initiation in this model, a single DEN dose (200 mg/kg b.wt.) dissolved in saline was injected intraperitoneally. After initiation, all rats underwent one period of 5-days fasting, as mitotic proliferative stimuli. To promote hepatocarcinogenesis, 2-acetylaminofluorene (2-AAF) was introduced in the form of six daily intragastric doses (30 mg/kg in 1% Tween 80); two weeks after DEN treatment.
Safranal at doses of 25 mg/kg by weight (b.wt.) and 50 mg/kg b.wt, was administrated orally to rats. These doses have been reported to suppress chemically-induced oxidative damage in rats. A total of 40 adult male albino Wistar rats were randomly divided into […] (n=8) and were subjected to different treatments. Group 1 (control) was orally administered distilled water (5 ml/kg b.wt.) throughout the experimental duration and were injected with a single dose of saline. […]
TUNEL assay was performed for the purpose of assessing apoptosis. […] DNA fragmentation, a key indicator of apoptosis, is detected using this kit. […]

[2] = test system: protein carbonyl (P. carbonyl); experiment: Protein carbonyl content in liver homogenate, DEN/2-AAF hepatocarcinogenesis model; format: in vivo, albino Wistar rats; details: mean±SEM, 8 rats
Procedure: (§1) The experimental hepatocarcinogenesis model was developed according to a protocol by […] et al. that was adapted for our purposes. To initiate and promote hepatocarcinogenesis, diethylnitrosamine (DEN) and 2-acetylaminofluorene (2-AAF) were used, respectively. For hepatocarcinogenesis initiation in this model, a single DEN dose (200 mg/kg b.wt.) dissolved in saline was injected intraperitoneally. After initiation, all rats underwent one period of 5-days fasting, as mitotic proliferative stimuli. To promote hepatocarcinogenesis, 2-acetylaminofluorene (2-AAF) was introduced in the form of six daily intragastric doses (30 mg/kg in 1% Tween 80); two weeks after DEN treatment. […] at doses of 25 mg/kg by weight (b.wt.) and 50 mg/kg b.wt, was administrated orally to rats. These doses have been reported to suppress chemically-induced oxidative damage in rats. A total of 40 adult male albino Wistar rats were randomly divided into […] (n=8) and were subjected to different treatments. Group 1 (control) was orally administered distilled water (5 ml/kg b.wt.) throughout the experimental duration and were injected with a single dose of saline. Group 2 ([…] only) was subjected to a safranal dose (50 mg/kg b.wt.) through oral administration for the duration of the experimental period. Hepatocarcinogenesis was induced by DEN and promoted by 2-AAF, as reported previously, in group 3 (HCC). […] Glutathione (GSH) content was determined by analyzing liver homogenates, according to the method of Van Dooran et al. The assay depends on measuring yellow 5-thiol-2-nitrobenzoate absorbance at 412 nm. Glutathione-S-transferase (GST) activity was determined using the method of Habig et al. GST catalyzes the conjugation of GSH thiol group with 1-Chloro-2,4-dinitrobenzene (CDNB), which can be measured by determining the increase in absorbance at 340 nm. […] CAT decomposes hydrogen peroxide (H2O2) to oxygen and water; therefore, the activity of CAT was evaluated according to by the exponential decomposition of H2O2 at 240 nm. […] UV-160-Shimadzu recording spectrophotometer was used to record absorbances. […]

Malondialdehyde (MDA) = experiment: MDA level in liver homogenate, DEN/2-AAF hepatocarcinogenesis model; format: in vivo, albino Wistar rats; details: mean±SEM, 8 rats
Procedure: as §1

[3] = test system: superoxide dismutase (SOD); experiment: Superoxide dismutase in liver homogenate, DEN/2-AAF hepatocarcinogenesis model; format: in vivo, albino Wistar rats; details: mean±SEM, 8 rats
Procedure: as §1

[4] = HCC (DEN/2-AAF) rats + safranal high dose 50 mg/kg b.wt. oral, 12 weeks
[5] = HCC (DEN/2-AAF) rats + safranal low dose 25 mg/kg b.wt. oral, 12 weeks
[6] = safranal alone 50 mg/kg b.wt. oral, no DEN (group 2)

## CC1=C(C=O)C(C)(C)CC=C1 [Safranal, 2,6,6-trimethylcyclohexa-1,3-diene-1-carbaldehyde]
HeLa cells
  growth of HeLa cells: inhibit the growth of HeLa cells
[1]; low/high doses of safranal in animals exposed to DEN, compared to group 3
  number of TUNEL-positive cells: significant increase in the number of both TUNEL- and M30 CytoDeath-positive cells
[1]; safranal only (group 2), compared to control group
  number of TUNEL-positive cells: did not exhibit a notable change
[2]; [4]
  P.Carbonyl: 1.45 ± 0.06 nmol/mg protein
[2]; [5]
  P.Carbonyl: 1.61 ± 0.06 nmol/mg protein
[2]; [6]
  P.Carbonyl: 1.52 ± 0.03 nmol/mg protein
Malondialdehyde (MDA); [4]
  MDA: 0.63 ± 0.03 nmol/mg protein
Malondialdehyde (MDA); [5]
  MDA: 0.61 ± 0.02 nmol/mg protein
Malondialdehyde (MDA); [6]
  MDA: 0.64 ± 0.02 nmol/mg protein
[3]; [4]
  SOD: 3.96 ± 0.13 unit/mg protein
[3]; [5]
  SOD: 4.02 ± 0.18 unit/mg protein
[3]; [6]
  SOD: 4.05 ± 0.09 unit/mg protein

— US10912741B2, “Prevention of liver cancer with safranal-based formulations” (United Arab Emirates University, priority 2019, dated 2021)
